{
  "source": "BindingDB's records for doi:10.1515/dmdi.1990.8.1-2.85",
  "about": "(Duphar, 1990)",
  "key": {"D(2) dopamine receptor": {"molecular_target": "D(2) dopamine receptor (Rattus norvegicus, UniProt P61169)"}, "[1]": {"molecular_target": "Muscarinic acetylcholine receptor M2 (Rattus norvegicus, UniProt P10980)"}, "[2]": {"molecular_target": "Delta-type opioid receptor (Rattus norvegicus, UniProt P33533)"}, "[3]": {"molecular_target": "5-hydroxytryptamine receptor 2A (Rattus norvegicus, UniProt P14842)", "sequence (P14842 whole entry)": "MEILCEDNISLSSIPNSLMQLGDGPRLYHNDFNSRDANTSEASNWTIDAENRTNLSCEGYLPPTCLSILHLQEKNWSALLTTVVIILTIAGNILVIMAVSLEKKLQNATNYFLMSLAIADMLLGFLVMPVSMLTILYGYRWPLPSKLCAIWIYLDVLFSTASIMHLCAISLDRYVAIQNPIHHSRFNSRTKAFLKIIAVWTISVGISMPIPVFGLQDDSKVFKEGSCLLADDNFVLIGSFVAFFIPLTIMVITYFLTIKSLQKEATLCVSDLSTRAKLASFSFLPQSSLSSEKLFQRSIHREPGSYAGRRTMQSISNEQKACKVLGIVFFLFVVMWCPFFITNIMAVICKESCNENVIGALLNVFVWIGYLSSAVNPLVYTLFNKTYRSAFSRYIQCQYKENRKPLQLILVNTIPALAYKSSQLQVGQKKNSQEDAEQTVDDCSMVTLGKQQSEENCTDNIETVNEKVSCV"}, "[4]": {"molecular_target": "Gastrin/cholecystokinin type B receptor (Rattus norvegicus, UniProt P30553)", "sequence (P30553 whole entry)": "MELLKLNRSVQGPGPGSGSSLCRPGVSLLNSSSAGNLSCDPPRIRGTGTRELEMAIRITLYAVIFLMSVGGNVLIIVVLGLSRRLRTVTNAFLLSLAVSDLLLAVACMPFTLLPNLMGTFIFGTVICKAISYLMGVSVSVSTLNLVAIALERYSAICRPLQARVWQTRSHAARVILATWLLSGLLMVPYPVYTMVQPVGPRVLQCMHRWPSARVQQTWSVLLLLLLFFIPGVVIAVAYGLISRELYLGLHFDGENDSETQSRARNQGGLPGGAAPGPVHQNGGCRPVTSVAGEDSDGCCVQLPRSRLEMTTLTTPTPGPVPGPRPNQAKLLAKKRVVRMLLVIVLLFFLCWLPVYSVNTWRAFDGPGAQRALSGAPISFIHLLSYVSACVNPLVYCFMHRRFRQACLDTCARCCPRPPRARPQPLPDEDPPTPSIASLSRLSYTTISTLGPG"}, "[5]": {"molecular_target": "Alpha-1A adrenergic receptor (Rattus norvegicus, UniProt P43140)"}, "[6]": {"molecular_target": "Beta-1 adrenergic receptor (Rattus norvegicus, UniProt P18090)"}, "[7]": {"molecular_target": "Alpha-2C adrenergic receptor (Rattus norvegicus, UniProt P22086)"}, "[8]": {"molecular_target": "5-hydroxytryptamine receptor 1B (Rattus norvegicus, UniProt P28564)"}, "[9]": {"molecular_target": "Muscarinic acetylcholine receptor M1 (Rattus norvegicus, UniProt P08482)", "sequence (P08482 whole entry)": "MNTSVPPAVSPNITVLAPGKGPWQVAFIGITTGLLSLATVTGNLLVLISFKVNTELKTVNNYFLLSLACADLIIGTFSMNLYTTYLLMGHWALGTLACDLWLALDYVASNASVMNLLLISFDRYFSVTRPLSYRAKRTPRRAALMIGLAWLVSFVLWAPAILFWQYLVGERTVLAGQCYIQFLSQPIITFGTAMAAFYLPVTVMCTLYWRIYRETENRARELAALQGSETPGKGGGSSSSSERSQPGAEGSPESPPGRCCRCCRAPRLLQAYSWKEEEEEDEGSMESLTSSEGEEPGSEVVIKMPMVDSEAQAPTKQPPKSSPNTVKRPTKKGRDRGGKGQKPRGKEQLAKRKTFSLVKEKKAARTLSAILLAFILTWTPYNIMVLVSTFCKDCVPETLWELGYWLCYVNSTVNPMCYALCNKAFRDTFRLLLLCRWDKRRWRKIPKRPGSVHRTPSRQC"}, "[10]": {"molecular_target": "5-hydroxytryptamine receptor 2C (Sus scrofa, UniProt G7ZKZ7)", "sequence (G7ZKZ7 whole entry)": "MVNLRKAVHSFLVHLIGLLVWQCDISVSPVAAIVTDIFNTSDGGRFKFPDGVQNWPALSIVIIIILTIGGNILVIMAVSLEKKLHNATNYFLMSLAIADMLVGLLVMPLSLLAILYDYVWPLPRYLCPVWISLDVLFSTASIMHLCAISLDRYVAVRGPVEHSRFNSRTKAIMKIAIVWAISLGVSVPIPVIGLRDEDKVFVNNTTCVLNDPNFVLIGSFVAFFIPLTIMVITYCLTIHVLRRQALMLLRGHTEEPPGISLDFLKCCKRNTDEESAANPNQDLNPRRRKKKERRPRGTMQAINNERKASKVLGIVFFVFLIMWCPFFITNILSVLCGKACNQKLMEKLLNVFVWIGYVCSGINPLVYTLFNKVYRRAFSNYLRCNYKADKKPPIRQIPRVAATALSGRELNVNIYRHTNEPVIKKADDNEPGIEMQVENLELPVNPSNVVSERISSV"}, "Mu-type opioid receptor": {"molecular_target": "Mu-type opioid receptor (Rattus norvegicus, UniProt P33535)", "sequence (P33535 whole entry)": "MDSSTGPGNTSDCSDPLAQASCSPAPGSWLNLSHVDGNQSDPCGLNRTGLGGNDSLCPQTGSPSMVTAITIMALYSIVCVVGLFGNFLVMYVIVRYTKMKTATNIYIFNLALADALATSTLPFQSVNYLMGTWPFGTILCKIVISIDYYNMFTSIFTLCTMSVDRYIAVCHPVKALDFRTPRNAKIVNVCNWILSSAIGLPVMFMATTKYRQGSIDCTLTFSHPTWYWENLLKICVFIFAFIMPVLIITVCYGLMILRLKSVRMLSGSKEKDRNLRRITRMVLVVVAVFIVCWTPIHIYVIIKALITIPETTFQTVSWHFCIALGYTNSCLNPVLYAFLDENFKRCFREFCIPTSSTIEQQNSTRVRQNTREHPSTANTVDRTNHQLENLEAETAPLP"}, "[11]": {"molecular_target": "Calcium release-activated calcium channel protein 1 (Homo sapiens, UniProt Q96D31)", "sequence (Q96D31 whole entry)": "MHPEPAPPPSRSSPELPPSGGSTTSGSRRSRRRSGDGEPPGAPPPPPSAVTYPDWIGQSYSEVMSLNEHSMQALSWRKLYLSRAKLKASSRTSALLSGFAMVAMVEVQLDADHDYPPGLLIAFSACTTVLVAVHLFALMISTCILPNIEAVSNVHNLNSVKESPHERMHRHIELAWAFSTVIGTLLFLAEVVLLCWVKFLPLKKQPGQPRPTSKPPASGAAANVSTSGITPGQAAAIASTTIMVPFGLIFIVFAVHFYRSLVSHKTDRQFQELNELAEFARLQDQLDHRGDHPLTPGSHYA"}, "Histamine H1 receptor": {"molecular_target": "Histamine H1 receptor (Rattus norvegicus, UniProt P31390)", "sequence (P31390 whole entry)": "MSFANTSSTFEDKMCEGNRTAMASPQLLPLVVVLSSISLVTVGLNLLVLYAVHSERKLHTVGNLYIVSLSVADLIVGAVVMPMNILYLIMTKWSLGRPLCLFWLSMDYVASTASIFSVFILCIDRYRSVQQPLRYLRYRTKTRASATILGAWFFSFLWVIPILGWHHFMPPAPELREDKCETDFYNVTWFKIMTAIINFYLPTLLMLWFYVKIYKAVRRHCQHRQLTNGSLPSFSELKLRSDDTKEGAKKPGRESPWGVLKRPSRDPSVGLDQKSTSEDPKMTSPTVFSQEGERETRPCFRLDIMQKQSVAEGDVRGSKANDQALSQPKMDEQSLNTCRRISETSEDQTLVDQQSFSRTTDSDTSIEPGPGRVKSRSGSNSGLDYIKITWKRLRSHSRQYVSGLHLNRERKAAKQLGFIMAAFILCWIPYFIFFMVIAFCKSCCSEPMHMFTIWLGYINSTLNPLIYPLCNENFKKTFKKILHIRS"}, "[12]": {"molecular_target": "Glutamate receptor ionotropic, NMDA 1 (Rattus norvegicus, UniProt P35439)"}, "[13]": {"molecular_target": "Cysteinyl leukotriene receptor 1 (Cavia porcellus, UniProt Q2NNR5)"}, "[14]": {"molecular_target": "Gamma-aminobutyric acid receptor subunit alpha-1 (Rattus norvegicus, UniProt P62813)", "sequence (P62813 whole entry)": "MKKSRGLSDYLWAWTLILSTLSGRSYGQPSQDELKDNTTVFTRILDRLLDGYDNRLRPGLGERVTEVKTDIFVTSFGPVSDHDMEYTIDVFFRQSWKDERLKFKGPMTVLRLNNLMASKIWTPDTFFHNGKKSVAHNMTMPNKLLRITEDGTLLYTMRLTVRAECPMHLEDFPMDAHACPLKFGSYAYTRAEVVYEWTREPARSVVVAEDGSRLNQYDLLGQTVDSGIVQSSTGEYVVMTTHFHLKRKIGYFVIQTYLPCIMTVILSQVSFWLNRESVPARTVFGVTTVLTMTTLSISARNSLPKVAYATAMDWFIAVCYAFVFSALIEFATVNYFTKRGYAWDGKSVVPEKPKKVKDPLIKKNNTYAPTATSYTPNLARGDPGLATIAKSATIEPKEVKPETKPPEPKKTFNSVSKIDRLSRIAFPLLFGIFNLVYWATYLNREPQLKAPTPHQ"}, "[15]": {"molecular_target": "Glycine amidinotransferase, mitochondrial (Rattus norvegicus, UniProt P50442)"}, "[16]": {"molecular_target": "5-hydroxytryptamine 1D receptor (Bos taurus, UniProt Q8MI13)", "sequence (Q8MI13 whole entry)": "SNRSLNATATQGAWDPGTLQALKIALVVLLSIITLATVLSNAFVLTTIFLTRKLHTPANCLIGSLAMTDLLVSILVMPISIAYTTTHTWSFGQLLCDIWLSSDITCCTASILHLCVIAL"}, "Protachykinin-1": {"molecular_target": "Protachykinin-1 (Rattus norvegicus, UniProt P06767)"}, "[17]": {"molecular_target": "Pro-thyrotropin-releasing hormone (Rattus norvegicus, UniProt P01150)"}, "[18]": {"molecular_target": "Muscarinic acetylcholine receptor M3 (Rattus norvegicus, UniProt P08483)", "sequence (P08483 whole entry)": "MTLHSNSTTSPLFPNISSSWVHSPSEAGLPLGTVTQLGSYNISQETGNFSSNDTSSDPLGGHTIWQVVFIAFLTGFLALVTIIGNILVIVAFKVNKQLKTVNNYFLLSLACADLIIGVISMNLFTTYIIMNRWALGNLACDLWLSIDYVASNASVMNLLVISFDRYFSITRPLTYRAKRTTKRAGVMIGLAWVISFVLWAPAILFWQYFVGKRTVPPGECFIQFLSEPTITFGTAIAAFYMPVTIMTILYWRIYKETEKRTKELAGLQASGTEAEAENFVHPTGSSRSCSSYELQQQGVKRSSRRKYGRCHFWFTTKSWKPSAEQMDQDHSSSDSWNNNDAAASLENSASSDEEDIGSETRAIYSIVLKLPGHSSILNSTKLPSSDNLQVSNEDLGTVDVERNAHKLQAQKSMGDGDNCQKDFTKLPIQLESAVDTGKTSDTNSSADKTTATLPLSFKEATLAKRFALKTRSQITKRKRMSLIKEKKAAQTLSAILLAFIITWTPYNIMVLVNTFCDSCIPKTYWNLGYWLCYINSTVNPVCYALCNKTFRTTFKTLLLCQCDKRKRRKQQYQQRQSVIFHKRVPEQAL"}, "D(1A) dopamine receptor": {"molecular_target": "D(1A) dopamine receptor (Rattus norvegicus, UniProt P18901)"}, "[19]": {"molecular_target": "Voltage-dependent calcium channel gamma-1 subunit (Homo sapiens, UniProt Q06432)", "sequence (Q06432 whole entry)": "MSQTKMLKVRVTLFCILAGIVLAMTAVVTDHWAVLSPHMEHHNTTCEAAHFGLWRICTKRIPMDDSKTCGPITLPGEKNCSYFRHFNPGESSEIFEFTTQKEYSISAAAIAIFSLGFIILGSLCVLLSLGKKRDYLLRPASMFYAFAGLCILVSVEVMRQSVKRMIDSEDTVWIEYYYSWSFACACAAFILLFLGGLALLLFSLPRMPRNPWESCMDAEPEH"}, "[20]": {"molecular_target": "Sigma non-opioid intracellular receptor 1 (Rattus norvegicus, UniProt Q9R0C9)", "sequence (Q9R0C9 whole entry)": "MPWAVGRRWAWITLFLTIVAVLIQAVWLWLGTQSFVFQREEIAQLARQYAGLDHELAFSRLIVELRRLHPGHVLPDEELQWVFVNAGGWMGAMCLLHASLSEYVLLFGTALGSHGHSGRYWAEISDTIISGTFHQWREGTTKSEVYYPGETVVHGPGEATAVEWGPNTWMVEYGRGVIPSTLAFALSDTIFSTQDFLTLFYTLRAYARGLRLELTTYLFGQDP"}, "[21]": {"molecular_target": "5-hydroxytryptamine receptor 3A (Mus musculus, UniProt P23979)"}, "[22]": {"molecular_target": "Kappa-type opioid receptor (Rattus norvegicus, UniProt P34975)"}},
  "data": [
    {"smiles": "c1cc2c(c(N3CCNCC3)c1)OCCO2", "note": "[1-(2,3-Dihydro-benzo[1,4]dioxin-5-yl)-piperazine]", "values": [
      {"measurement": "Ki", "setting": "D(2) dopamine receptor", "result": 1.1, "unit": "µM"},
      {"measurement": "Ki", "setting": "[1]", "result": "> 10", "unit": "µM"},
      {"measurement": "Ki", "setting": "[2]", "result": "> 10", "unit": "µM"},
      {"measurement": "Ki", "setting": "[3]", "result": 1.7, "unit": "µM"},
      {"measurement": "Ki", "setting": "[4]", "result": "> 10", "unit": "µM"},
      {"measurement": "Ki", "setting": "[5]", "result": 0.79, "unit": "µM"},
      {"measurement": "Ki", "setting": "[6]", "result": 0.42, "unit": "µM"},
      {"measurement": "Ki", "setting": "[7]", "result": 3.1, "unit": "µM"},
      {"measurement": "Ki", "setting": "[8]", "result": 0.052, "unit": "µM"},
      {"measurement": "Ki", "setting": "[9]", "result": "> 10", "unit": "µM"},
      {"measurement": "Ki", "setting": "[10]", "result": 0.081, "unit": "µM"},
      {"measurement": "Ki", "setting": "Mu-type opioid receptor", "result": "> 10", "unit": "µM"},
      {"measurement": "Ki", "setting": "[11]", "result": "> 10", "unit": "µM"},
      {"measurement": "Ki", "setting": "Histamine H1 receptor", "result": 3.9, "unit": "µM"},
      {"measurement": "Ki", "setting": "[12]", "result": "> 10", "unit": "µM"},
      {"measurement": "Ki", "setting": "[13]", "result": "> 10", "unit": "µM"},
      {"measurement": "Ki", "setting": "[14]", "result": "> 10", "unit": "µM"},
      {"measurement": "Ki", "setting": "[15]", "result": "> 10", "unit": "µM"},
      {"measurement": "Ki", "setting": "[16]", "result": 0.39, "unit": "µM"},
      {"measurement": "Ki", "setting": "Protachykinin-1", "result": "> 10", "unit": "µM"},
      {"measurement": "Ki", "setting": "[17]", "result": "> 10", "unit": "µM"},
      {"measurement": "Ki", "setting": "[18]", "result": "> 10", "unit": "µM"},
      {"measurement": "Ki", "setting": "D(1A) dopamine receptor", "result": "> 10", "unit": "µM"},
      {"measurement": "Ki", "setting": "[19]", "result": "> 10", "unit": "µM"},
      {"measurement": "Ki", "setting": "[20]", "result": 9.3, "unit": "µM"},
      {"measurement": "Ki", "setting": "[21]", "result": 1.3, "unit": "µM"},
      {"measurement": "Ki", "setting": "[22]", "result": "> 10", "unit": "µM"}
    ]}
  ]
}
